Reference: patent US20200331904A1, “3-AMINO-[1,2,4]-TRIAZOLE DERIVATIVES AND THEIR USE FOR CONTROLLING UNDESIRED PLANT GROWTH” (Bayer CropScience Aktiengesellschaft, priority 2017, published 2020)

Experiments:
Format in all cases: in vivo
Conditions in all cases: application rate 320 g/ha, scored visually after about 3 weeks
Matricaria inodora = assay: Pre-emergence herbicidal efficacy, MATIN
Source text: (§1) C.1 Pre-Emergence Herbicidal Action and Crop Plant Compatibility
(§2) Seeds of monocotyledonous and dicotyledonous weed plants and crop plants are placed in plastic or organic planting pots and covered with soil. The compounds of the invention, formulated in the form of wettable powders (WP) or as emulsion concentrates (EC), are then applied onto the surface of the covering soil as aqueous suspension or emulsion with addition of 0.5% additive at a water application rate of […] (converted). After the treatment, the pots are placed in a greenhouse and kept under good growth conditions for the trial plants. After about 3 weeks, the effect of the preparations is scored visually in comparison with untreated controls as percentages. For example, 100% activity=the plants have died, 0% activity=like control plants.
(§3) ABUTH: Abutilon theophrasti ALOMY: Alopecurus myosuroides AMARE: Amaranthus retroflexus AVEFA: Avena fatua CYPES: Cyperus esculentus ECHCG: Echinochloa crus-galli LOLMU: Lolium multiflorum MATIN: Matricaria inodora PHBPU: Ipomoea purpurea POLCO: Polygonum convolvulus SETVI: Setaria viridis STEME: Stellaria media VERPE: Veronica persica VTOTR: Viola tricolor

Stellaria media = assay: Pre-emergence herbicidal efficacy, STEME
Source text: as §1, §2, §3

Viola tricolor = assay: Pre-emergence herbicidal efficacy, VIOTR
Source text: as §1, §2, §3

| SMILES | Herbicidal efficacy against MATIN (Matricaria inodora) [%] | Herbicidal efficacy against STEME (Stellaria media) [%] | Herbicidal efficacy against VIOTR (Viola tricolor) [%] |
| --- | --- | --- | --- |
| c1ccc2c(c1)OCCC2Nc1nc2n(n1)CCCS2 (racemic) [Example I-204] | 100 | 100 |  |
| c1ccc2c(c1)CCCC2Nc1nc2n(n1)CCCS2 (racemic) [Example I-209] | 100 | 100 | 100 |
| O=C(C1CC1)N1CCn2nc(NC3CCCc4ccccc43)nc2C1 (stereo not shown) [Example I-060] | 100 | 100 | 90 |
| CC(=O)N1CCn2nc(NC3CCCc4ccccc43)nc2C1 (stereo not shown) [Example I-061] | 100 | 100 | 100 |
| O=S(=O)(Cc1ccccc1)N1CCn2nc(NC3CCOc4ccccc43)nc2C1 (stereo not shown) [Example I-076] |  | 90 | 100 |
| O=S(=O)(Cc1ccccc1)N1CCn2nc(NC3CCCc4ccccc43)nc2C1 (stereo not shown) [Example I-078] | 70 | 90 | 100 |
| CC(C)S(=O)(=O)N1CCn2nc(NC3CCCc4ccccc43)nc2C1 (stereo not shown) [Example I-094] | 100 | 100 | 100 |
| CS(=O)(=O)N1CCn2nc(NC3CCCc4ccccc43)nc2C1 (stereo not shown) [Example I-097] | 100 | 100 | 100 |
| Cc1ccc2c(c1)[C@H](Nc1nc3n(n1)CCNC3)CCC2 [Example I-157] | 80 | 100 | 100 |
| CC(=O)N1CCn2nc(N[C@@H]3CCc4ccccc43)nc2C1 [Example I-158] | 90 | 100 | 100 |
| O=C(C1CC1)N1CCn2nc(N[C@@H]3CCc4ccccc43)nc2C1 [Example I-160] | 90 | 100 | 100 |
| O=C(c1ccccc1)N1CCn2nc(N[C@@H]3CCCc4ccccc43)nc2C1 [Example I-164] | 90 | 100 | 100 |
| Cc1ccc2c(c1)C(Nc1nc3n(n1)CCN(C(=O)c1ccccc1)C3)C(C)C2 (stereo not shown) [Example I-166] | 90 | 100 | 100 |
| Cc1ccc2c(c1)C(Nc1nc3n(n1)CCN(C(=O)c1cccc(C(F)(F)F)c1)C3)C(C)C2 (stereo not shown) [Example I-168] | 80 | 90 | 100 |
| Cc1ccc2c(c1)C(Nc1nc3n(n1)CCN(C(=O)c1ccccc1Cl)C3)C(C)C2 (stereo not shown) [Example I-169] | 90 | 100 | 100 |
| Cc1ccc2c(c1)C(Nc1nc3n(n1)CCN(C(=O)C1CCCCC1)C3)C(C)C2 (stereo not shown) [Example I-172] | 90 | 100 | 100 |
| O=S1(=O)CCCn2nc(NC3CCOc4ccccc43)nc21 (stereo not shown) [Example I-242] | 100 | 80 |  |
| O=S1(=O)CCCn2nc(NC3CCCc4ccccc43)nc21 (stereo not shown) [Example I-252] | 100 | 100 |  |
| O=C1CCn2nc(NC3CCOc4ccccc43)nc2N1CC1CCCCC1 (stereo not shown) [Example I-255] |  | 90 | 100 |
| CC(C)N1C(=O)CCn2nc(NC3CCCc4ccccc43)nc21 (stereo not shown) [Example I-262] |  | 100 | 100 |
| Cc1ccc2c(c1)C(Nc1nc3n(n1)CCCN3S(=O)(=O)C(C)C)CCC2 (stereo not shown) [Example I-325] |  | 100 |  |
